Laboratory results as given in patent publication US20130310384A1, “Sulfonamide-Containing Compounds” (THE BRIGHAM AND WOMEN'S HOSPITAL, INC., priority 2010, published 2013).

Columns and labels:
[1] = test system: Human Aβ38, Aβ40 and Aβ42 levels; assay: Acute in vivo efficacy study in hAPPSL transgenic mice (Aβ levels by immunosorbent assay); details: 6-month-old female hAPPSL Tg mice, oral b.i.d. 50 and 100 mg/kg, 7 consecutive days
Experimental: (§1) A preliminary acute efficacy study in 6-month-old female hAPPSL transgenic (Tg) mice (Rockenstein, E., Mallory, M., Mante, M., Sisk, A., and Masliah, E. (2001) J Neurosci Res 66, 573-582) was completed on the compound of Example 1. Mice were treated orally (b.i.d.) with two doses, 50 mg/kg (n=4) and 100 mg/kg (n=4) for 7 consecutive days. […] Human Aβ38, Aβ40 and Aβ42 levels were determined in the cortex, hippocampus, and cerebral spinal fluid (CSF) by an immunosorbent assay.

[2] = Tolerability in the acute in vivo study (7 consecutive days, oral b.i.d.)
From the text: [VIII] Embodiments can include any one or more of the following advantages. […] Selective inhibition of the cleavage of APP relative to that of the Notch receptor is believed to minimize certain unwanted side effects, such as lymphopoiesis and intestinal cell differentiation. […] This is an indication that there could be a minimization of side effects with these types of compounds
as §1

[3] = hAPPSL Tg mice, oral b.i.d. 50 and 100 mg/kg, 7 consecutive days

Structure (SMILES)	melting point	other results
CC[C@@H](c1ccccc1)N(Cc1ccc(C(=O)O)cc1)S(=O)(=O)c1ccc(Cl)cc1 [Example 1, (S)-4-((4-Chloro-N-(1-phenylpropyl)phenylsulfonamido)methyl)benzoic acid]	–	Reduction of Aβ40 in the hippocampus ([1]; p<0.01): Statistically significant reductions; Reduction of Aβ38 in the hippocampus ([1]; p<0.05): Statistically significant reductions; Toxicity in in vivo efficacy study ([2]; 100 mg/kg b.i.d. for 7 consecutive days, transgenic and nontransgenic mice): no toxicity was observed; Adverse side effects on any organ compared to vehicle controls [2, 3]: no obvious adverse side effects; Mortality during treatment [2, 3]: No mice died
C[C@H](O)[C@H](CO)N(Cc1ccc(C(=O)O)cc1)S(=O)(=O)c1ccc(Cl)cc1 [Example 118, 4-((4-Chloro-N-((2S,3S)-1,3-dihydroxybutan-2-yl)phenylsulfonamido)methyl)benzoic acid]	182 to 184 °C	–
C[C@H](O)[C@H](CO)N(Cc1ccc(C#N)cc1F)S(=O)(=O)c1ccc(Cl)cc1 [Example 131, 4-Chloro-N-(4-cyano-2-fluorobenzyl)-N-((2S,3S)-1,3-dihydroxybutan-2-yl)-benzenesulfonamide]	112 to 114 °C	–
C[C@H](O)[C@H](CO)N(Cc1ccc(C#N)cc1)S(=O)(=O)c1ccc(Cl)cc1 [Example 132, 4-Chloro-N-(4-cyanobenzyl)-N-((2S,3S)-1,3-dihydroxybutan-2-yl)-benzene-sulfonamide]	124 to 126 °C	–
C[C@@H](c1ccc(Cl)cc1)N(Cc1ccc(C(=O)O)cc1)S(=O)(=O)c1ccc(Cl)cc1 [Example 141, (S)-4-((4-Chloro-N-(1-(4-chlorophenyl)ethyl)phenylsulfonamido)methyl)benzoic acid]	163 to 165 °C	–
COC(=O)c1ccc(CN([C@@H](C)c2ccc(Cl)cc2)S(=O)(=O)c2ccc(Cl)cc2)cc1 [Example 141, (S)-Methyl 4-((4-chloro-N-(1-(4-chlorophenyl)ethyl)phenylsulfonamido)methyl)benzoate]	67 to 69 °C	–

Now from value to compound, other results behind:

melting point	Structure (SMILES)	other results
103 to 105 °C	CC[C@@H](c1ccccc1)N(Cc1ccc(C(=O)OC)cc1)S(=O)(=O)c1ccc(F)c(F)c1 [Example 115, (S)-Methyl 4-((3,4-difluoro-N-(1-phenylpropyl)phenylsulfonamido)methyl)benzoate]	–
123 to 125 °C	CC[C@@H](c1ccc(C(F)(F)F)cc1)N(Cc1ccc(C(=O)OC)cc1)S(=O)(=O)c1ccc(Cl)cc1 [Example 122, (S)-Methyl 4-((4-chloro-N-(1-(4-(trifluoromethyl)phenyl)propyl)phenylsulfonamido)methyl)benzoate]	–
120 to 121 °C	CC[C@H](c1ccc(C(F)(F)F)cc1)N(Cc1ccc(C(=O)OC)cc1)S(=O)(=O)c1ccc(Cl)cc1 [Example 123, (R)-Methyl 4-((4-chloro-N-(1-(4-(trifluoromethyl)phenyl)propyl)phenylsulfonamido)methyl)benzoate]	–
87 to 89 °C	CC[C@@H](c1ccccc1)N(Cc1ccc(C(=O)OC)c(F)c1F)S(=O)(=O)c1ccc(Cl)cc1 [Example 124, (S)-Methyl 4-((4-chloro-N-(1-phenylpropyl)phenylsulfonamido)methyl)-2,3-difluorobenzoate]	–
101 to 103 °C	CC[C@@H](c1ccc(C(F)(F)F)cc1)N(Cc1ccc(C(=O)O)cc1)S(=O)(=O)c1ccc(Cl)cc1 [Example 125, (S)-4-((4-Chloro-N-(1-(4-(trifluoromethyl)phenyl)propyl)phenylsulfonamido)methyl)benzoic acid]	–
105 to 107 °C	CC[C@H](c1ccc(C(F)(F)F)cc1)N(Cc1ccc(C(=O)O)cc1)S(=O)(=O)c1ccc(Cl)cc1 [Example 126, (R)-4-((4-Chloro-N-(1-(4-(trifluoromethyl)phenyl)propyl)phenylsulfonamido)methyl)benzoic acid]	–
127 to 129 °C	CC[C@@H](c1ccccc1)N(Cc1ccc(C(=O)O)c(F)c1F)S(=O)(=O)c1ccc(Cl)cc1 [Example 127, (S)-4-((4-Chloro-N-(1-phenylpropyl)phenylsulfonamido)methyl)-2,3-difluorobenzoic acid]	–
60 to 62 °C	COC(=O)c1cc(CN([C@@H](CO)c2ccccc2)S(=O)(=O)c2ccc(Cl)cc2)ccc1OC [Example 133, (R)-Methyl 5-((4-chloro-N-(2-hydroxy-1-phenylethyl)phenylsulfonamido)methyl)-2-methoxybenzoate]	–
79 to 80 °C	COc1ccc(CN([C@@H](CO)c2ccccc2)S(=O)(=O)c2ccc(Cl)cc2)cc1C(=O)O [Example 134, (R)-5-((4-Chloro-N-(2-hydroxy-1-phenylethyl)phenylsulfonamido)methyl)-2-methoxybenzoic acid]	–
